From patent US20100297157A1, “VACCINE THERAPY FOR CHOROIDAL NEOVASCULARIZATION” (priority 2007, published 2010)

Columns and labels:
[1] = system: CNV lesions; assay: Measurement of the CNV size by choroidal flat mount; assay type: in vivo, mice expressing human HLA-A*0201
Method: (§1) C57bl/6 mice with body weight of 20 g to 25 g were obtained from CLEA Japan (Tokyo, Japan). All experiments were conducted in accordance with the Animal Care and Use Committee and the Statement for the Use of Animals in Ophthalmic and Vision Research by the Association for Research in Vision and Opthalmology. Mice used in the experiments express human HLA-A*0201.
(§2) The mice were separated into three groups. PBS, an immunity adjuvant (incomplete Freund's adjuvant (IFA)), or a suspension of a human VEGF receptor 2-derived antigenic peptide and IFA was injected subcutaneously into the axillae twice (day 0 and day 10). […] Subsequently, on day 20, CNV was induced at three sites in both eyes using a semiconductor laser set to φ 200 μm, 200 mW, and 0.02 seconds.
(§3) Experimental CNV was induced as described elsewhere with minor modifications. In short, general anesthesia was induced with an intraperitoneal injection (1 mL/kg) of a mixture (1:1) of ketamine hydrochloride (Ketalar®, Sankyo, Tokyo, Japan) and xylazine hydrochloride (Celactal®, Bayer, Tokyo, Japan). The pupil was dilated using one drop of 0.5% tropicamide (Mydrin® M, Santen Pharmaceutical, Osaka, Japan) for photocoagulation. Six laser photocoagulations were applied to each eye between the major retinal vessels around the optic disc with a diode laser photocoagulator (DC-3000®, NIDEK, Osaka, Japan) and a slit lamp delivery system (SL150, Topcon, Tokyo, Japan) at a spot size of […], duration of 0.02 seconds, and intensity of 200 mW.
A total of 36 mice were used for choroidal flat mount analysis (the number of mice from each group on the third day and the seventh day was 4 and 8, respectively). Three days and seven days after laser treatment, the size of CNV lesion was evaluated using choroidal flat mounts as previously described. The mice were anesthetized and perfused with 1 mL of phosphate buffered saline (PBS) containing 50 mg/mL FITC-conjugated dextran (4.4 kDa, 50 mg/kg body weight; Sigma). Then, the eyes were enucleated, and the cornea and lens were removed, and the entire retina was carefully dissected from the eye cup. Radial cuts were made from the edges of the equator, and the eyecup was flat-mounted on a glass slide with the sclera facing down. The flat-mounted sections were observed under a fluorescence microscope (Olympus DPSO), and the images were captured using a CCD camera. The data were imported into a computer using a software system (Studio lite). […] The data were expressed as mean±standard error.
(§4) The fluorescein fluorescent fundus angiography scores were evaluated using Mann-Whitney U test. The size of CNV lesion was evaluated by ANOVA followed by Dunnett's post hoc test. […]

[2] = system: tumor model; conditions: cited from earlier work
[3] = system: VEGF; assay: VEGF up-regulation in experimental CNV; conditions: in vivo
[4] = system: CNV lesions; assay: Evaluation of the grade of CNV by fluorescein angiography (leakage from laser-induced CNV lesions); assay type: in vivo, mice expressing human HLA-A*0201
Method: as §1, §2, §3
Three and seven days after CNV induction (on day 23 and day 27), a total of 169 animals were used to examine the effect on leakage from the CNV lesions (on the third day, the number of animals from the control group, low-dose group, and high-dose group was 41, 34, and 18, respectively; on the seventh day, the number of animals from the control group, low-dose group, and high-dose group was 51, 15, and 10, respectively). […]
as §4

[5] = seventh day, low-dose group vs control group

## VIAMFFWLL (IFA emulsion; listed as Homo sapiens) [nine amino acids from position 773 of human VEGFR-2; injected as a suspension with IFA]
[1]; in vivo, effect observed only on the seventh day and not on the third day
  CNV growth: inhibits CNV growth
[1]; seventh day, high-dose group vs control group
  CNV lesion size: significantly decreased
[1]; [5]
  CNV lesion size: significantly decreased
[1]; third day, low-dose and high-dose groups vs control group
  CNV lesion size: No difference was observed
[2]
  antiangiogenic effect: confirmed to have antiangiogenic effect
[3]
  VEGF up-regulation: suppresses VEGF up-regulation
[4]; seventh day, high-dose group vs control
  fluorescein leakage from the CNV lesions: lower
[4]; [5]
  leakage from CNV lesions: not statistically significant, the leakage from CNV lesions was lower
[4]; third day after CNV induction, low-dose and high-dose groups vs control group, s.c. injection day 0 and day 10
  degree of fluorescein leakage from CNV lesions: no difference was observed
